According to patent US20100087388A1, “ODCASE INHIBITORS AS ANTI-VIRALS AND ANTIBIOTICS” (priority 2005, published 2010):

Experiments:
[1] = test system: human primary blood cells
[2] = target: T1, Staphylococcus aureus ODCase (Staphylococcus aureus, UniProt Q6GHN1); test: ODCase enzyme inhibition assay; type: biochemical; conditions: read-out: K1 against Staphylococcus aureus ODCase
T1 construct: made in house; host or cells: E. coli BL21(DE3), pET24a(+)
Source text: ODCase gene, pyrF, was obtained from the complete genomes of the respective bacteria through ATCC. The pyrF gene was amplified from the genome of S. aureus M252 using two synthetic primers: Dir 5′-[…] [SEQ ID NO: 1] and Rev 5′-[…] [SEQ ID NO: 2].
The pET expression system was used to express ODCase from pyrF. The cloning strategy can use any generic strategies, herein a double digestion of pET24a(+) expression vector and pyrF separately using EcoRI and HindIII restriction enzyme was used to produce digestion products with sticky ends. […] The digested vector was separated from the restriction enzyme by gel purification by QIAquick Gel Extraction Kit Protocol using microcentrifuge and quantified on 1% agarose gel with 2-log ladder as standard. In addition to quantifying DNA, 1% agarose gel was run with undigested vector to confirm that the vector was digested.
pyrF from the PCR mixture was also double digested in 50 uL solution using the same conditions described above. The separation of the pyrF from restriction enzymes was carried out by QIAquick Gel Extraction Kit Protocol using Microcentrifuge, and the collected gene was quantified on 1% agarose gel. […]

T1 sequence (Q6GHN1 whole entry): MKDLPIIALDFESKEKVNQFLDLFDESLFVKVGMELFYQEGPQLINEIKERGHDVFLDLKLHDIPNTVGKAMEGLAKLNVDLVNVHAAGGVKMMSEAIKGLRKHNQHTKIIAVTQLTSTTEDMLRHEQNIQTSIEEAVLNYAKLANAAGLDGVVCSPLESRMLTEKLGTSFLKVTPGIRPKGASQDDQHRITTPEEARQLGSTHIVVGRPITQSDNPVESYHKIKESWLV

SMILES	Effect on human primary blood cells (indications of toxicity) [1]	Ki [2]
O=c1cc(I)n([C@@H]2O[C@H](CO)[C@@H](O)[C@H]2O)c(=O)[nH]1 [Ia, 6-Iodo-uridine]	did not inhibit primary cells significantly	
O=c1cc(I)n([C@@H]2O[C@H](COP(=O)(O)O)[C@@H](O)[C@H]2O)c(=O)[nH]1 [Ib, 6-Iodo uridine-5′-O-monophosphate]		< 50 nM
